Values quoted from earlier work as cited in patent publication EP1085079A1, “Treatment compositions for fabrics” (THE PROCTER & GAMBLE COMPANY, priority 1999, dated 2001).

Compound | stability over a wide pH range
Cn1sc2c(c1=O)CCC2 [Promexal, 2-methyl-4,5-trimethylene-4-isothiazolin-3-one] | 4-12
O=c1[nH]sc2ccccc12 [Proxel, 1,2-benzisothiazolin-3-one] | 4-12
